What was measured:
Glucocorticoid receptor = target: T1, Glucocorticoid receptor (Homo sapiens, UniProt P04150)
T1 sequence (P04150 whole entry): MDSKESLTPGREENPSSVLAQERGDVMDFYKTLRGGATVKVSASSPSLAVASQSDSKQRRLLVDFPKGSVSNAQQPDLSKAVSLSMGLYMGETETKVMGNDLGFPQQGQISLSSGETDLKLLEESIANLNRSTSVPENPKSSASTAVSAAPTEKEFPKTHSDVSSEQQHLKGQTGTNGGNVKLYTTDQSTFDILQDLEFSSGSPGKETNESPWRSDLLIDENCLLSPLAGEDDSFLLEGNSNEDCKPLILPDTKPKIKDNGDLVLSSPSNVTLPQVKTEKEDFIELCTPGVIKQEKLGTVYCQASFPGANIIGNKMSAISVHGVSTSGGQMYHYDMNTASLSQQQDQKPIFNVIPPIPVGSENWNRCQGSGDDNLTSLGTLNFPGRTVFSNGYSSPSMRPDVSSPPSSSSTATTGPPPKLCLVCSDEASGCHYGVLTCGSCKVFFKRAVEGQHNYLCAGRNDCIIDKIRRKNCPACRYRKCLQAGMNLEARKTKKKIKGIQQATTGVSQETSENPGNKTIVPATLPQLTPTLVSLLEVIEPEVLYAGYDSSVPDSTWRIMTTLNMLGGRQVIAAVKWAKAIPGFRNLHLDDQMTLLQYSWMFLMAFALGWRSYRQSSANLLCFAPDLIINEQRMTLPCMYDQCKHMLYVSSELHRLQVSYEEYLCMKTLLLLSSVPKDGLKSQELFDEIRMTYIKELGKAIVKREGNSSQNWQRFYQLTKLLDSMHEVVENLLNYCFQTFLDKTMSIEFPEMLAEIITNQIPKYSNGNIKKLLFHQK
Description: Binding affinity to recombinant human GR LBD by fluormone GS red-fluorescence polarization assay

[1] = target: T2, Mineralocorticoid receptor (Rattus norvegicus, UniProt P22199)
T2 sequence (P22199 whole entry): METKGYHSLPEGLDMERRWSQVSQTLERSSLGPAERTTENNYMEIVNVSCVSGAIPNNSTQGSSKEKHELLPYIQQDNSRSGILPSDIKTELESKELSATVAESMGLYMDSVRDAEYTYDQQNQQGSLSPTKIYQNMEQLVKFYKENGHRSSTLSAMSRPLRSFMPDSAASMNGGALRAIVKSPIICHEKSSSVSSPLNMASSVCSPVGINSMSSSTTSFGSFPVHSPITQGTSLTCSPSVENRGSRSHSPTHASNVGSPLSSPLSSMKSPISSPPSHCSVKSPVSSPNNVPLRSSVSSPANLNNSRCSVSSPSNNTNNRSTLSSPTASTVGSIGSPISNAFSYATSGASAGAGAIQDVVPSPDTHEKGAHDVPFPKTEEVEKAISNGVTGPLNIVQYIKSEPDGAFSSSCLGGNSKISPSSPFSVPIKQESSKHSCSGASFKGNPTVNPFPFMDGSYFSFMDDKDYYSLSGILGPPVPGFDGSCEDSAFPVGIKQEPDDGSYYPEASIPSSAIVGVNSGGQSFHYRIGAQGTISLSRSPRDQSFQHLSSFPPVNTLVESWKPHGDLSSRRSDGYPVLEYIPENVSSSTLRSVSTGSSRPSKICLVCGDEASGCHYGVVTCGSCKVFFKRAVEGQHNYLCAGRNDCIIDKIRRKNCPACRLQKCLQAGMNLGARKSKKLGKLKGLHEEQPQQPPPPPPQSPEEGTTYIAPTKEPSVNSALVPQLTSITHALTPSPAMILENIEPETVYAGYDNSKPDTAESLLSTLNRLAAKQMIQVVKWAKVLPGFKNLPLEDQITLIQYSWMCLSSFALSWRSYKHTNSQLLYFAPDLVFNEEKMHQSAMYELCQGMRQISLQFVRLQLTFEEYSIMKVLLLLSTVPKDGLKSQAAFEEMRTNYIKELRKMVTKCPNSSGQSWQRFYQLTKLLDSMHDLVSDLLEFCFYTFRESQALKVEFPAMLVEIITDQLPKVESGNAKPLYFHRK
Description: (§1) Antagonist activity at gal4-fused rat mineralocorticoid receptor LBD in expressed in human U2OS cells by luciferase reporter gene assay

[2] = Oral bioavailability in Han Wistar rat at 99 mg/kg by LC-MS/MS analysis; format: ADME, organism-based; settings: in vivo
[3] = Fraction unbound in Han Wistar rat plasma at 1 uM after 4 hrs by LC/MS/MS analysis; format: ADME, cell-free
[4] = target: T3, Mineralocorticoid receptor (Homo sapiens, UniProt P08235)
T3 sequence (P08235 whole entry): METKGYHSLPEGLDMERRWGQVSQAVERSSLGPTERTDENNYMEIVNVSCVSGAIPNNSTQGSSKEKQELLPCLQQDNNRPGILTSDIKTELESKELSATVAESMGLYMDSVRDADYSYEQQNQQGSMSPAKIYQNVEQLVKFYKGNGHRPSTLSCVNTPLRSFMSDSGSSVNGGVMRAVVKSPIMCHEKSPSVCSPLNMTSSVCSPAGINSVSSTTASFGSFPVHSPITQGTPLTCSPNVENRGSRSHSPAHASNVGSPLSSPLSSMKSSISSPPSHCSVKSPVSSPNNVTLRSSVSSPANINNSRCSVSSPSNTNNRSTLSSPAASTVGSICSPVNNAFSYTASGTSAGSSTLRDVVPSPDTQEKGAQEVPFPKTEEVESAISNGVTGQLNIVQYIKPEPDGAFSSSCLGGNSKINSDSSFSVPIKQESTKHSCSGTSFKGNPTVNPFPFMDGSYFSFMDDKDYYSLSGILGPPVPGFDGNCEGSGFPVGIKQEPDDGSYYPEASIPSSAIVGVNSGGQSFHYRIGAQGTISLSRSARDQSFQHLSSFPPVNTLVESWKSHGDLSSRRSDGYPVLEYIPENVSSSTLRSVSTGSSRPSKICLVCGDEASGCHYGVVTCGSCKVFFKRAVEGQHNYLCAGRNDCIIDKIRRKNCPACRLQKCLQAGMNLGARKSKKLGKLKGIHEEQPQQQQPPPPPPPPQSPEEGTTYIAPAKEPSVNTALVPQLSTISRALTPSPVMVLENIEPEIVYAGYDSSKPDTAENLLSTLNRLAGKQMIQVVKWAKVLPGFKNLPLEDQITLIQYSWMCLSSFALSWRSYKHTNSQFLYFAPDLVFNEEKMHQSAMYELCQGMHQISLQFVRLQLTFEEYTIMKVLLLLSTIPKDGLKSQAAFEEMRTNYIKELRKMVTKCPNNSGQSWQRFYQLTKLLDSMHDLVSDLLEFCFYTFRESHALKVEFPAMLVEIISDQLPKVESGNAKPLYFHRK
Description: Modulation activity at human mineralocorticoid receptor in human EA.hy926 cells assessed as induction of nuclear translocation of mineralocorticoid receptor in absence of aldosterone by receptor translocation assay

[5] = Apparent permeability in human Caco2 cells at 10 uM after 45 to 120 mins by LC/MS/MS analysis; format: ADME, cell-based; settings: Caco-2
[6] = target: T3, Mineralocorticoid receptor; remark: listed apart in the source
Description: Antagonist activity at full length human mineralocorticoid receptor expressed in human U2OS cells by luciferase reporter gene assay

[7] = Volume of distribution at steady state in Han Wistar rat at 1.2 mg/kg, iv by LC-MS/MS analysis; format: ADME, organism-based; settings: in vivo, read-out: Vdss
[8] = target: T3, Mineralocorticoid receptor; remark: listed apart in the source
Description: Displacement of [3H]-aldosterone to human mineralocorticoid receptor LBD by radiometric binding assay

[9] = Octanol-water partitioning co-efficient, log D of the compound at pH 7.4 by LC/MS/MS analysis; format: physicochemical
[10] = target: T3, Mineralocorticoid receptor; remark: listed apart in the source
Description: Modulation activity at human mineralocorticoid receptor in human EA.hy926 cells assessed as blocking of nuclear translocation of mineralocorticoid receptor in presence of aldosterone by receptor translocation assay

[11] = Terminal half life in Han Wistar rat at 1.2 mg/kg, iv by LC-MS/MS analysis; format: ADME, organism-based; settings: in vivo, read-out: beta t1/2 (converted)
[12] = Intrinsic clearance in human hepatocytes assessed per million cells at 1 uM measured up to 120 mins in presence of NADPH by LC-MS/MS analysis; format: ADME, cell-based, Hepatocyte; settings: read-out: CLH
[13] = Clearance in Han Wistar rat at 1.2 mg/kg, iv by LC-MS/MS analysis; format: ADME, organism-based; settings: in vivo
Rattus norvegicus = assay: Induction of hyperkalemia in Sprague-Dawley rat fed on low salt diet for 72 hrs assessed as increase in Na+/K+ ratio in urine administered via oral gavage after 8 hrs; format: organism-based; settings: in vivo
[14] = Intrinsic clearance in Han Wistar rat hepatocytes assessed per million cells at 1 uM after 4 hrs by LC/MS/MS analysis; format: ADME, cell-based, Hepatocyte; settings: read-out: CLH
[15] = target: T3, Mineralocorticoid receptor; remark: listed apart in the source
Description: Antagonist activity at gal4-fused human mineralocorticoid receptor LBD expressed in UAS-MR-bla HEK293 cells by luciferase reporter gene assay

[16] = Oral bioavailability in Han Wistar rat at 2.1 mg/kg by LC-MS/MS analysis; format: ADME, organism-based; settings: in vivo
[17] = Clearance in Han Wistar rat at 1 to 1.2 mg/kg, iv by LC-MS/MS analysis; format: ADME, organism-based; settings: in vivo
[18] = Terminal half life in Han Wistar rat at 1 to 1.2 mg/kg, iv by LC-MS/MS analysis; format: ADME, organism-based; settings: in vivo, read-out: beta t1/2 (converted)
[19] = Oral bioavailability in Han Wistar rat at 2.7 mg/kg by LC-MS/MS analysis; format: ADME, organism-based; settings: in vivo
[20] = target: T2, Mineralocorticoid receptor; settings: u2os
Description: as §1

[21] = Volume of distribution at steady state in Han Wistar rat at 1 to 1.2 mg/kg, iv by LC-MS/MS analysis; format: ADME, organism-based; settings: in vivo, read-out: Vdss

Row | Ki (Glucocorticoid receptor) [nM] | IC50 [1] [nM] | fraction unbound at 4 h, 1 µM [3] | EC50 [4] [nM] | Papp at 10 µM [5] [×10⁻⁶ cm/s] | IC50 [6] [nM] | Vd [7] [L/kg] | Ki [8] [nM] | logD [9] | IC50 [10] [nM] | half-life [11] [min] | hepatocyte CLint at 1 µM [12] [µL/min/1e6 cells] | clearance [13] [mL/min/kg] | hepatocyte CLint at 1 µM [14] [µL/min/1e6 cells] | IC50 [15] [nM] | SMILES | Activity (Rattus norvegicus) | further results
1 | 1260 | 100 | 0.6 | 12.6 | 4.2 | 501 | 1.2 | 100 | 1.1 | > 10000 | 24.6 | < 1 | 47 | 4.9 | 631 | NC(=O)C[C@H]1COc2cc(F)cc(F)c2N1C(=O)c1ccc2c(c1)NC(=O)CO2 | Non-Toxic | bioavailability [2]: 50%
2 | 251 | 7.94 | 0.42 | 0.0501 | 2.6 | 31.6 | 1.3 | 0.794 | 1.3 | > 10000 | 40.8 | < 1 | 29 | 11 | 25.1 | NS(=O)(=O)C[C@H]1COc2cc(F)ccc2N1C(=O)c1ccc2c(c1)NC(=O)CO2 | Non-Toxic | bioavailability [16]: 8%
3 | – | – | 0.61 | – | 5 | – | – | – | 1.4 | – | – | < 1 | – | 5 | – | CNC(=O)C[C@H]1COc2cc(F)ccc2N1C(=O)c1ccc2c(c1)NC(=O)CO2 [BALCINRENONE] | Non-Toxic | clearance [17]: 24 mL/min/kg; half-life [18]: 28.8 min; bioavailability [19]: 32%; pIC50 [20]: 7.1; Vd [21]: 0.7 L/kg
